Data reported in patent US9295190B2, “Seed treatment composition” (DSM IP ASSETS B.V., priority 2011, dated 2016).

Legend:
[1] = system: Watermelon (Citrullus lanatus) seeds; assay: Germination of coated watermelon seeds in cocopeat; format: in vivo
Excerpt: Watermelon (Citrullus lanatus) seeds were untreated or coated with a composition comprising 1.5 gram polyvinylpyrrolidone and 9 gram natamycin product (i.e. Delvocid®, a product comprising 50% (w/w) natamycin) per kg of seed. This composition was applied as described in Example 10.
(§1) Subsequently, the seeds were germinated in trays of sterile, buffered (i.e. with calcium nitrate to pH of 6.7) cocopeat, which is a stable growth medium commonly used and accepted for e.g. simulation of seed germination in the horticultural industry. The 50 seeds planted per treatment were subjected to an ambient temperature of minimally 1.4° C. during night time and maximally 26.9° C. during day time (average temperature 13.6° C.) for 19 days and continuously irrigated to field capacity. The average relative humidity during the trial was 72%. During the trial, the trays with cocopeat were irrigated 3 to 5 times per day. The trays were perforated at the bottom leading to direct removal of excess water. This way, the cocopeat could be kept at field capacity. After 15, 17 and 19 days, the germination percentage was determined according to ISTA standards (see Handbook International Rules for Seed Testing, Edition 2011, Chapter 5, pages 5-32, published by the International Seed Testing Association, Switzerland).

[2] = system: Tomato (Solanum lycopersicum) seeds; assay: Germination of drum primed, encrusted tomato seeds; format: in vivo; settings: after both 10 and 19 days of incubation
Description: as §1
Tomato (Solanum lycopersicum) seeds were primed (i.e. brought to same germination level) using drum priming. Subsequently, the primed tomato seeds were either not treated further or encrusted with composition 6 of Table 1 according to the method as described in Example 1. […] After 10 and 19 days, the germination percentage was determined using the ISTA method described in Example 11.

C[C@@H]1C/C=C/C=C/C=C/C=C/[C@H](O[C@@H]2O[C@H](C)[C@@H](O)[C@H](N)[C@@H]2O)C[C@@H]2O[C@](O)(C[C@@H](O)C[C@H]3O[C@@H]3/C=C/C(=O)O1)C[C@H](O)[C@H]2C(=O)O [natamycin]
Germination percentage in excess of the untreated seeds ([1]; after 15 days of incubation): 18%
Germination percentage in excess of the untreated seeds ([1]; after 17 days of incubation): 34%
Germination percentage in excess of the untreated seeds ([1]; after 19 days of incubation): 38%
Germination percentage in excess of the control seeds [2]: 10%
